Results on eight substances are retold here after paper PMC7456892 (Frontiers in Plant Science, 2020).

“Also recorded” adds a separate entry of the source. Where no end group is shown, it is not given here.

Series [1] deals with pepsin. The series can be described thus: SGF (200 mg NaCl, 10 units pepsin/µg test protein, pH 1.2). The conditions noted are these: 37°C, up to 60 min.
For a further series, the system named is F. graminearum. Format: cell-based, Fusarium graminearum isolate 73B1A. As to conditions: growth assay, 25°C, dark, 24 h, OD 595 nm.
The target of series [2] is pepsin (Sus scrofa, UniProt P00791). The series can be described thus: Simulated Gastric Fluid (SGF) pepsin digestion assay. The conditions noted are these: pH 1.2. The class given is in vitro ADME. On the procedure: Protein samples were analyzed for degradation by SDS PAGE followed by staining with RAPIDStain (Calbiochem) for 1 h after intense washing with ultrapure water. Digestion products from the SGF assays were analyzed by Matrix-assisted laser desorption/ionization time of flight (MALDI TOF) mass spectrometry. Samples were pre-incubated with 0.5 μl of 40 mM DTT for 20 min on the ground steel plate to reduce disulfide bonds. The samples were subsequently mixed with 2,5-dihydroxybenzoic acid (DHB) and the mass to charge ratio was measured for each sample using a Bruker Daltonics Ultraflex III MALDI-TOF/TOF Mass Spectrometer.
pepsin (Sus scrofa, UniProt P00791), sequence (P00791 60-385): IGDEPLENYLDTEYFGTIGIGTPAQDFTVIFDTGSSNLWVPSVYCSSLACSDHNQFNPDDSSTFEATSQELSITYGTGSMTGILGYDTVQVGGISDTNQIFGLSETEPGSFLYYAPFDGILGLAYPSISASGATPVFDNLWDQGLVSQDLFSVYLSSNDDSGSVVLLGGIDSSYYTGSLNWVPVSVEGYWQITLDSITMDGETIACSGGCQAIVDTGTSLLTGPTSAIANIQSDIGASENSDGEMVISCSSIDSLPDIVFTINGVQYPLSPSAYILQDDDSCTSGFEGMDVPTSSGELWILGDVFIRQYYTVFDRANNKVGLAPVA

A further series concerns C. graminicola. The class given is cell-based, Colletotrichum graminicola isolate Carroll-1A-99. As to conditions: growth assay, 25°C, dark, 40 h, OD 595 nm.
For the next series, the system named is pancreatin. The conditions noted are these: 37°C, up to 60 min.

Method for trypsin (pancreatin): Aliquots (320 µl) of each of SIF (60 mM KH2PO4, pH 7.5, 12 mg/ml pancreatin), SIF minus pancreatin and ultrapure water were added to individual glass vials with stir bars on a submersible stir plate (2mag MIX drive, Sigma Aldrich) in a 37°C water bath for 2 min before the addition of 40 µl of test protein (5 mg/ml) to each vial. Azoalbumin (A-2382, Sigma Aldrich) at a final concentration of 10 mg/ml in ultrapure water was used as the positive control for protease digestion. Protein degradation was assessed by SDS PAGE as described above.

For the substance “KDCLTRRHGFQGRCLFDRQCAHVCRSDGFIGGQCRGPLRKCFCSRPC”, the not cleaved entry with pepsin [1] is listed as “stable in the SGF assay for more than 60 min”.

Regarding “NaD1-C3S-C47S: NaD1 variant lacking the Cys3-Cys47 (fourth) disulfide bond (RESKTESNTFPGICITKPPCRKACISEKFTDGHCSKILRRCLCTKPS; not fully specified; ends and bridges not checked; UniProt Q8GTM0 26-72, looked up, variant C3S C47S)”, the “Antifungal activity against F. graminearum compared with wild type defensin, in words” value in the series with F. graminearum is recorded as “as active as unmodified NaD1”. Besides, in the series with trypsin (pancreatin), the “Size of peptides after digestion in SIF” value is given as “less than 2300 Da”. In the series with pepsin [2], the “Digestion in SGF, result in words” value is listed as “partially digested”. Further, the “Antifungal activity against C. graminicola compared with wild type defensin, in words” value in the series with C. graminicola was “as active as unmodified NaD1”.

Regarding “NaD1: class II plant defensin from the ornamental tobacco Nicotiana alata, purified from flowers (RECKTESNTFPGICITKPPCRKACISEKFTDGHCSKILRRCLCTKPC; ends and bridges not checked; cysteine pairing not given here; UniProt Q8GTM0 26-72, looked up)”, the “Mass of fragments Da at 60 min” value in the series with pepsin [2] is 5296 Da. With “RECKTESHRFKGPCITKPPCRKACISEFFTDGHCSKILRRCLCTKPC”, in the series with pepsin [1], the cleaved bond entry was “F28-F29, 10 min; also recorded: T16-K17, 10 min”. Regarding “RECKTESHRFKGPCITKPPCRKACISEKFTDGHCSKILRRCLCTKPC”, in the series on pepsin [1], the not cleaved result was “not degraded in SGF (60 min)”. With “RECKTESNTFPGICITKPPCRKACISEKFTDGHCSKILRRCLCTKPC”, the not cleaved entry is recorded as “stable in the SGF assay for more than 60 min; also recorded: not cleaved” with pepsin [1] and “not digested by SIF (60 min)” with pancreatin.

On to “RECKTESRAFALECITKPPCRKACISEKFTDGHCSKILRRCLCTKPC”, for which the cleaved bond result in the series on pepsin [1] is “A9-F10, 60 min”. In the case of “RESKTESRAFALECITKPPCRKACISEFFTDGHCSKILRRCLCTKPS”, the cleaved bond entry in the series with pepsin [1] is reported as “A9-F10, within 1 minute; also recorded: F28-F29, within 1 minute”.
